Test results: US20230286970A1, “NOVEL OXADIAZOLE-BASED SELECTIVE HDAC6 INHIBITORS” (ITALFARMACO S.P.A., priority 2020, published 2023)
pIC50: −log10 of the molar value.

How the values were obtained:
[1] = Stability to Phase I metabolism in rat S9 liver fraction; details: after 90 minutes, 37° C.
[2] = Stability in human plasma; details: after 4 hours, 37° C.
Description: In order to evaluate the stability to circulating enzymes, test compounds were incubated in human and rat plasma at 37° C. in a thermostated oscillating bath. Each test compound was incubated at μM concentration (50 μM when the samples were analysed by UV/HPLC, 1 or 2 μM when the samples were analysed by LC-MS/MS) for 0, 15, 30 minutes and 1, 2 and 4 hours. The reaction was stopped placing samples on ice bath and adding acidified acetonitrile. After centrifugation (10 minutes at 14000 rpm) an aliquot of the supernatant was diluted with water, filtered with 0.45 μm regenerated cellulose syringe filters and injected in HPLC-UV or in LC-MS/MS. The percentage of the remaining amount at the various incubation times with respect to the initial amount were calculated. The half-life in plasma was also calculated.

recombinant human HDAC1 = recombinant human HDAC1 (Homo sapiens (Human), UniProt Q13547); assay: Enzymatic screening, HDAC1 inhibition (fluorogenic FdL_G substrate); format: biochemical
Chain of recombinant human HDAC1 (Q13547 whole entry): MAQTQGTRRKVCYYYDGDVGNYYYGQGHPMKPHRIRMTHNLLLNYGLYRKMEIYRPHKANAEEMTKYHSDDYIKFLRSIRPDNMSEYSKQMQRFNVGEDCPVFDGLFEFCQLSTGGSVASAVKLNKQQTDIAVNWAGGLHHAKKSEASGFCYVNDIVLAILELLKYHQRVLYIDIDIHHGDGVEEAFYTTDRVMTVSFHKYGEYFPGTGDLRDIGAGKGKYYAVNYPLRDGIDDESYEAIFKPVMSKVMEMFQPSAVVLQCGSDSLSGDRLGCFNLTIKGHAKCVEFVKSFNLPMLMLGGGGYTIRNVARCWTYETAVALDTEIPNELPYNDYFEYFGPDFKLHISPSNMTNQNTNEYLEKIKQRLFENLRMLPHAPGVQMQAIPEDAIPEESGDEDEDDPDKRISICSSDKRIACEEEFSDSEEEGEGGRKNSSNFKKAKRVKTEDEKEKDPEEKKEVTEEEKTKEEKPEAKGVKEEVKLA
Summary of the method: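 Recombinant human HDAC1 inhibition was measured fluorometrically using the FLUOR DE LYS-Green (FdL_G) substrate. Compounds at 8 doses (1% DMSO final) in Tris-HCl pH 8 buffer with NaCl, Tween-20 and glycerol were preincubated in triplicate with enzyme and 1 mg/mL BSA, then given substrate. Developer I plus 2 μM TSA was added, and fluorescence read after 25 minutes in the dark.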

recombinant human HDAC6 = recombinant human HDAC6 (Homo sapiens (Human), UniProt Q9UBN7); assay: Enzymatic screening, HDAC6 inhibition (fluorogenic FdL_G substrate); format: biochemical
Chain of recombinant human HDAC6 (Q9UBN7 whole entry): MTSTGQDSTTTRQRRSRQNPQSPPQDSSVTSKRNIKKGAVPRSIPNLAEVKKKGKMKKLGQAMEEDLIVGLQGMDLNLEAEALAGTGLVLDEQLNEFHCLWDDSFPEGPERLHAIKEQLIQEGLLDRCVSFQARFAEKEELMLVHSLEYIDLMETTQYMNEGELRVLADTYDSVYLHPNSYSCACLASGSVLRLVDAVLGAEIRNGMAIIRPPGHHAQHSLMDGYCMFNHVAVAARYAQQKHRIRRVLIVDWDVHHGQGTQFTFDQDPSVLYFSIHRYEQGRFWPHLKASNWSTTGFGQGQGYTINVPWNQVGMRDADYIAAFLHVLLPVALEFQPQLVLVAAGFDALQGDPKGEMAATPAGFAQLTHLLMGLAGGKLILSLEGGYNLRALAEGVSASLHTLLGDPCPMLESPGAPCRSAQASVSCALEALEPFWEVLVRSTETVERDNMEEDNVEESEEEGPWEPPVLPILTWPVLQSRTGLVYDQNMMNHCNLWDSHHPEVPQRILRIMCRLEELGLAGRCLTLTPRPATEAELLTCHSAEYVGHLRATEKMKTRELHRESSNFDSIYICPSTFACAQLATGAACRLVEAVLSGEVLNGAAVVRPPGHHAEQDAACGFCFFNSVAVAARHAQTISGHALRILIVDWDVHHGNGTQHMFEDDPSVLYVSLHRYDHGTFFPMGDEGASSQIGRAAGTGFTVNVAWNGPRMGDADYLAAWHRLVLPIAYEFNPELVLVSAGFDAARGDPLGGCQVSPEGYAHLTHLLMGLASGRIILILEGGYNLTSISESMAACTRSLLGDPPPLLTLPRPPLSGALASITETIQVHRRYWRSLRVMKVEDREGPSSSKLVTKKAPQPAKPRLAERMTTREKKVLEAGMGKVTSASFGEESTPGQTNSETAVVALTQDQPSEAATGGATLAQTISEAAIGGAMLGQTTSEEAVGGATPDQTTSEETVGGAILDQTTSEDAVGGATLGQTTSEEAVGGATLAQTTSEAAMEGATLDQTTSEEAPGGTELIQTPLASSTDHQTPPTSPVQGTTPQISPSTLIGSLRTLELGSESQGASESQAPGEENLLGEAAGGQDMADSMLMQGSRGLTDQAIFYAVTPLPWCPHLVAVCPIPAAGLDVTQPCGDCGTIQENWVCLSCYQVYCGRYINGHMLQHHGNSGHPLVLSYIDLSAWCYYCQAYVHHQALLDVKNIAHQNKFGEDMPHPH
Summary of the method: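 Enzyme was preincubated with compound (8 doses, triplicate, 1% DMSO) in 25 mM Tris-HCl pH 8, 130 mM NaCl, 0.05% Tween-20, 10% glycerol, with BSA. A FLUOR DE LYS-Green substrate was then added, and fluorescence was read after developer plus 2 μM TSA.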

Stability in rat plasma = details: after 4 hours, 37° C.
[3] = Stability to Phase I metabolism in human S9 liver fraction; details: after 90 minutes, 37° C.

| Structure (SMILES) | residual percentage in RAT S9 FRACTION [1] [%] | residual percentage in HUMAN PLASMA [2] [%] | pIC50 (recombinant human HDAC1) | pIC50 (recombinant human HDAC6) | residual percentage in RAT PLASMA (Stability in rat plasma) [%] | residual percentage in HUMAN S9 FRACTION [3] [%] |
| --- | --- | --- | --- | --- | --- | --- |
| O=C(Nc1cccc(-c2cn(Cc3ccc(-c4nnc(C(F)F)o4)cn3)cn2)c1)N1CCOCC1 [compound 264, N-(3-(1-((5-(5-(difluoromethyl)-1,3,4-oxadiazol-2-yl)pyridin-2-yl)methyl)-1H-imidazol-4-yl)phenyl)morpholine-4-carboxamide] | 92 | 80 | < 3.70 | 7.72 | 94 | 93 |
| Nc1ccc(-c2cn(Cc3ccc(-c4nnc(C(F)F)o4)cc3)cn2)cn1 [compound 151, 5-(1-(4-(5-(difluoromethyl)-1,3,4-oxadiazol-2-yl)benzyl)-1H-imidazol-4-yl)pyridin-2-amine] | 79 | 98 | < 3.70 | 7.19 | 97 | 83 |
| CCC[C@@H](c1ccc(-c2nnc(C(F)F)o2)cc1)n1cc(-c2ccc(N)nc2)nn1 (stereo in doubt) [compound 193, 5-(1-(1-(4-(5-(difluoromethyl)-1,3,4-oxadiazol-2-yl)phenyl)butyl)-1H-1,2,3-triazol-4-yl)pyridin-2-amine] | 80 | 81 | < 3.70 | 6.98 | 92 | 87 |
| CS(=O)(=O)NCCC(c1ccc(-c2nnc(C(F)F)o2)cc1)c1cn(-c2ccc(N)nc2)nn1 (stereo not drawn) [Compd. 62, N-{3-[1-(6-aminopyridin-3-yl)-1H-1,2,3-triazol-4-yl]-3-{4-[5-(difluoromethyl)-1,3,4-oxadiazol-2-yl]phenyl}propyl}methanesulfonamide] | 86 | 88 | < 3.70 | 7.57 | 69 | 95 |
| Nc1ccc(-c2nnn(Cc3ccc(-c4nnc(C(F)F)o4)cc3)n2)cn1 [compound 64, 5-(2-(4-(5-(difluoromethyl)-1,3,4-oxadiazol-2-yl)benzyl)-2H-tetrazol-5-yl)pyridin-2-amine] | 9 | 69 | < 3.70 | 7.55 | 70 | 103 |
| NC(=O)c1cccc(-c2nnn(Cc3ccc(-c4nnc(C(F)F)o4)cc3)n2)c1 [compound 75, 3-(2-(4-(5-(difluoromethyl)-1,3,4-oxadiazol-2-yl)benzyl)-2H-tetrazol-5-yl)benzamide] | 90 | 96 | < 3.70 | 7.49 | 76 | 85 |
| COc1ncccc1-c1cn(Cc2ccc(-c3nnc(C(F)F)o3)cc2)nn1 [compound 131, 2-(difluoromethyl)-5-(4-((4-(2-methoxypyridin-3-yl)-1H-1,2,3-triazol-1-yl)methyl)phenyl)-1,3,4-oxadiazole] | 58 | 92 | < 3.70 | 7.29 | 82 | 83 |
| CC(=O)c1cccc(-c2nnn(Cc3ccc(-c4nnc(C(F)F)o4)cc3)n2)c1 [compound 140, 1-(3-(2-(4-(5-(difluoromethyl)-1,3,4-oxadiazol-2-yl)benzyl)-2H-tetrazol-5-yl)phenyl)ethan-1-one] | 0 | 99 | < 3.70 | 7.26 | 58 | 87 |
| NC(=O)c1cc(-c2nnn(Cc3ccc(-c4nnc(C(F)F)o4)cc3)n2)cnc1N [compound 76, 2-amino-5-(2-(4-(5-(difluoromethyl)-1,3,4-oxadiazol-2-yl)benzyl)-2H-tetrazol-5-yl)nicotinamide] | 89 | 74 | < 3.70 | 7.49 | 73 | 53 |
| CCNc1ccc(-c2nnn(Cc3ccc(-c4nnc(C(F)F)o4)cc3)n2)cn1 [compound 99, 5-(2-(4-(5-(difluoromethyl)-1,3,4-oxadiazol-2-yl)benzyl)-2H-tetrazol-5-yl)-N-ethylpyridin-2-amine] | 18 | 86 | < 3.70 | 7.42 | 93 | 52 |
| O=C(Nc1ccc(-c2nnc(Cc3ccc(-c4nnc(C(F)F)o4)cn3)s2)cn1)C(F)F [Compd. 102, N-(5-(5-((5-(5-(difluoromethyl)-1,3,4-oxadiazol-2-yl)pyridin-2-yl)methyl)-1,3,4-thiadiazol-2-yl)pyridin-2-yl)-2,2-difluoroacetamide] | 56 | 92 | < 3.70 | 7.41 | 90 | 82 |
| Nc1ccc(-c2cn(Cc3cc(F)c(-c4nnc(C(F)F)o4)cc3F)nn2)cn1 [compound 39, 5-(1-(4-(5-(difluoromethyl)-1,3,4-oxadiazol-2-yl)-2,5-difluorobenzyl)-1H-1,2,3-triazol-4-yl)pyridin-2-amine] | 96 | 83 | < 3.70 | 7.74 | 71 | 100 |
| Cc1ncccc1-c1cn(Cc2c(F)cc(-c3nnc(C(F)F)o3)cc2F)nn1 [compound 105, 2-(3,5-difluoro-4-((4-(2-methylpyridin-3-yl)-1H-1,2,3-triazol-1-yl)methyl)phenyl)-5-(difluoromethyl)-1,3,4-oxadiazole] | 71 | 84 | < 3.70 | 7.39 | 81 | 99 |
| CCNC(=O)c1cccc(-c2nnn(Cc3ccc(-c4nnc(C(F)F)o4)cc3)n2)c1 [compound 91, 3-(2-(4-(5-(difluoromethyl)-1,3,4-oxadiazol-2-yl)benzyl)-2H-tetrazol-5-yl)-N-ethylbenzamide] | 68 | 78 | < 3.70 | 7.46 | 93 | 74 |
| CC(c1ccc(-c2nnc(C(F)F)o2)cn1)n1cc(-c2ccc(N)nc2)nn1 (stereo not drawn) [Compd. 59, 5-(1-(1-(5-(5-(difluoromethyl)-1,3,4-oxadiazol-2-yl)pyridin-2-yl)ethyl)-1H-1,2,3-triazol-4-yl)pyridin-2-amine] | 97 | 87 | < 3.70 | 7.62 | 83 | 98 |
| O=C1NCc2ccc(-c3nnn(Cc4ccc(-c5nnc(C(F)F)o5)c(F)c4)n3)cc21 [compound 97, 6-(2-(4-(5-(difluoromethyl)-1,3,4-oxadiazol-2-yl)-3-fluorobenzyl)-2H-tetrazol-5-yl)isoindolin-1-one] | 95 | 76 | < 3.70 | 7.42 | 96 | 84 |
| Nc1ccc(-c2nnc(Cc3ccc(-c4nnc(C(F)F)o4)cc3)o2)cn1 [Compd. 218, 5-(5-(4-(5-(difluoromethyl)-1,3,4-oxadiazol-2-yl)benzyl)-1,3,4-oxadiazol-2-yl)pyridin-2-amine] | 89 | 92 | < 3.70 | 6.81 | 69 | 86 |
